From patent publication US20230312550A1, “N-(2-(4-CYANOTHIAZOLIDIN-3-YL)-2-OXOETHYL)-QUINOLINE-4-CARBOXAMIDES” (AstraZeneca AB, priority 2020, published 2023)
Converted amounts (≈) assume the structure as drawn.

Key:
[1] = Metabolic stability in human liver microsomes (HLM); conditions: human
Protocol: Metabolic stability in HLM was measured as described in J Comput Aided Mol Des 2015, 29, 795.

[2] = Kinetic solubility; conditions: kinetic from dmso stock
Protocol: Kinetic solubility was measured as described in Comput Aided Mol Des 2015, 29, 795.

[3] = target: Prolyl endopeptidase, Prolyl Oligopeptidase (hPREP) (Homo sapiens (Human), UniProt P48147); assay: hPrep inhibition assay; assay type: biochemical; conditions: hPREP 0.6 nM, Z-Gly-Pro-amino-methylcoumarin 50 μM; read-out: PREP IC50
How it was run: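 Fluorogenic read-out (340 nm excitation, 460 nm emission) after 20 min at rt, using 50 μM final Z-Gly-Pro-aminomethylcoumarin and 0.6 nM final enzyme, following 15 min compound preincubation. Buffer pH 7.5 with glutathione and Triton X-100. IC50 via one-site model on % inhibition vs log concentration.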

[4] = target: hFAP (M39-A757) (Homo sapiens (Human), UniProt Q12884); assay: hFAP binding assay (surface plasmon resonance); conditions: SPR, 20° C.; for hFAP Binding assay k(off) / hFAP Binding assay k(on): single cycle kinetics; for Kd: n = 1 or geometric mean n = 2-4
Protocol: Compounds were tested in a direct binding assay using 8K surface plasmon resonance biosensor (GE Healthcare) at 20° C. Immobilization of hFAP (M39-A757) on a CMD200M sensor chip (Xantec) was performed using standard amine coupling procedure in immobilization buffer (10 mM HEPES, 150 mM NaCl, 0.05% Tween20, pH 7.4). The surface was washed with 10 mM NaOH, 1M NaCl before being activated with EDC/NHS (GE Healthcare), followed by immobilization of hFAP (in 10 mM Acetate pH 5.0). Finally, the surface was deactivated by ethanolamine. Immobilization levels of hFAP were around 4000-6000 RU. The reference spot was treated as described, omitting the injection of hFAP. Compound concentration series were injected over the immobilized protein in increasing concentrations (2-500 nM) using single cycle kinetics in running buffer (20 mM TRIS, 150 mM NaCl, 0.05% Tween20, 1% DMSO, pH 7.4). Interaction models were fitted globally to the experimental traces, enabling determination of kon, koff and Kd.

[5] = target: FAP (Homo sapiens (Human), UniProt Q12884); assay: hFAP inhibition assay; assay type: biochemical; conditions: Ala-Pro-AMC 20 μM, n = 1 or geometric mean n = 2-3
Protocol: 384 low volume black plates (Greiner #784076) were used. 4 μL, 0.48 nM enzyme solution (100 mM Tris HCl, 100 mM NaCl, 0.05% Chaps, pH 7.4) was added to 40 nL compounds (in DMSO) at 10 CR, 3 fold dilution series from 50 μM FAC. Plates were incubated for 15 min at rt in dark. 4 μL, 40 μM substrate solution (100 mM Tris HCl, 100 mM NaCl, 0.05% Chaps, pH 7.4) was added to each well. Plates were centrifuged at 1000 rpm and incubated for 30 min at rt in dark. The plates were read on a PHERAstar® reader with excitation 340 nm and emission 460 nm. Data were analyzed in Genedata Screener®. IC50 values were determined by plotting % inhibition versus log compound concentration and using a one site dose response model.

[6] = Metabolic stability in rat hepatocytes (rHep); conditions: n = 1 or geometric mean of n = 2-3
[7] = target: human Fibroblast activation protein alpha (hFAP) (Homo sapiens (Human), UniProt Q12884); assay: hFAP inhibition assay (tight binders); assay type: biochemical; conditions: Ala-Pro-AMC 20 μM, n = 1 or geometric mean n = 2-6; note: hFAP 2.4 pM
Protocol: The plates were read on a PHERAstar® reader with excitation 340 nm and emission 460 nm. Data were analyzed in Genedata Screener®. IC50 values were determined by plotting % inhibition versus log compound concentration and using a one site dose response model.

[8] = Caco-2 cell permeability; conditions: human
Protocol: Caco-2 cell permeability was measured as described in Mol Pharm 2017, 14, 1601.

[9] = HLM CLint, n = 1 or average of n = 2-3
[10] = Solubility, kinetic solubility, n = 1 or average of n = 2-3

Sequence of Prolyl endopeptidase, Prolyl Oligopeptidase (hPREP) (P48147 whole entry): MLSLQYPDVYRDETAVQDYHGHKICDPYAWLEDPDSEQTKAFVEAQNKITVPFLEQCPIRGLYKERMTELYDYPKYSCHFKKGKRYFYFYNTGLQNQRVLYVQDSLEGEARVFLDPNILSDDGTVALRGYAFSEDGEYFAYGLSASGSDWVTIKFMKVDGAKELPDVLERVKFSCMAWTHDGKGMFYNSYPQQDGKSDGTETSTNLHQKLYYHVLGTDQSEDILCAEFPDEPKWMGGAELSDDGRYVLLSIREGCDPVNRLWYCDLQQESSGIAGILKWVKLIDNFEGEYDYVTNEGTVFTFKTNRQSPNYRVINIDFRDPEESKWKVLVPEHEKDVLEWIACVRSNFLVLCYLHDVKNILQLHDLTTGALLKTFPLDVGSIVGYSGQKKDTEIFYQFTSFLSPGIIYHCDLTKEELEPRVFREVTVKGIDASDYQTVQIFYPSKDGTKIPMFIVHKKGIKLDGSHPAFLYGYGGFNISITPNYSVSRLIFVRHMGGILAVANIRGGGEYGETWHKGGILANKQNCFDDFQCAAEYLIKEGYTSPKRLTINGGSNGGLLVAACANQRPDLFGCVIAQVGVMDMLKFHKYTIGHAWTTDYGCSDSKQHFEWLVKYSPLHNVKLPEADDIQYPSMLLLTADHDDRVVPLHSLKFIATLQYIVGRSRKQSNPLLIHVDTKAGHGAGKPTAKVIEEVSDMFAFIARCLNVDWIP
Sequence of hFAP (M39-A757) (Q12884 39-757): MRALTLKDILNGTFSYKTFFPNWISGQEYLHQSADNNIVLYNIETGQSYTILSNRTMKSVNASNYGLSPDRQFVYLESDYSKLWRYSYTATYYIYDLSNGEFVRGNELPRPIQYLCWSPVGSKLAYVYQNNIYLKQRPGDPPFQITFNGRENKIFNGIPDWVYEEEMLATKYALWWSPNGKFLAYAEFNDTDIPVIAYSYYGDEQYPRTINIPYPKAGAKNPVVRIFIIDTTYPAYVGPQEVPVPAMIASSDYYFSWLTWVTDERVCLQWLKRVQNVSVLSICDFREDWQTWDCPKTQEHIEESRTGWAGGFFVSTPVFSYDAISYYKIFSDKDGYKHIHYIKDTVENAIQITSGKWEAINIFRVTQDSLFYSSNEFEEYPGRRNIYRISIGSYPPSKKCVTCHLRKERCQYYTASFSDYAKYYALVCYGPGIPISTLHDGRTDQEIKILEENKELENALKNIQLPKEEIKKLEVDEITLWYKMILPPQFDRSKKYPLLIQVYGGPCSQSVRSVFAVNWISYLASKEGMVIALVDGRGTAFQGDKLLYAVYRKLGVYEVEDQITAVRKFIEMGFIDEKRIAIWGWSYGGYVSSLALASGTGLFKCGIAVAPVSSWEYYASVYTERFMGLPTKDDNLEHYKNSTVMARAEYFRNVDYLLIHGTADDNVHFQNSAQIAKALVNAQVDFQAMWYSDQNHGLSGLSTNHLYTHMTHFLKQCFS
Sequence of FAP (Q12884 38-760): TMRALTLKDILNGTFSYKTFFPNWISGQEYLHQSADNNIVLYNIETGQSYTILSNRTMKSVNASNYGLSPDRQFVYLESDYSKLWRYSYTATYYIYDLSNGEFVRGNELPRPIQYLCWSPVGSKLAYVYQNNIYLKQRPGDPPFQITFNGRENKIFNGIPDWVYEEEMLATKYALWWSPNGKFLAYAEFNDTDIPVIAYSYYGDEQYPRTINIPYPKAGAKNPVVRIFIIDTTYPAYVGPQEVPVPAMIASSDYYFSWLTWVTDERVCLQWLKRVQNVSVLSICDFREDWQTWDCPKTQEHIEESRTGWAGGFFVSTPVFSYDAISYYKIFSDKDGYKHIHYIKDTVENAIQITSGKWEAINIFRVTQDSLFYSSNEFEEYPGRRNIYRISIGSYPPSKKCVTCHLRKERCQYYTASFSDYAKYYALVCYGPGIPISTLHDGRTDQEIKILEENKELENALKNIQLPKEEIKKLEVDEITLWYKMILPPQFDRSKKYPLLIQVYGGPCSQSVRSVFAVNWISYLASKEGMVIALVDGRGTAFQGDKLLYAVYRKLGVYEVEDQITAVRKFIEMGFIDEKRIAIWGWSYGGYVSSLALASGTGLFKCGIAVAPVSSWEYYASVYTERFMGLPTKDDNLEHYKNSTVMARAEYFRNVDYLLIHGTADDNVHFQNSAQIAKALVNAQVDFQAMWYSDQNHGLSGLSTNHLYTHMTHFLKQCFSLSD
Sequence of human Fibroblast activation protein alpha (hFAP) (Q12884 38-760): as above

| Structure (SMILES) | microsomal CLint [1, 9] | solubility [2, 10] | IC50 [3] | hFAP Binding assay k(off) [4] | hFAP Binding assay k(on) [4] | Kd [4] | IC50 ([5]; hFAP […]) | rHep CLint [6] | IC50 [7] | IC50 ([5]; hFAP 0.24 nM) | Papp A→B [8] | Papp B→A [8] | efflux ratio [8] | Papp [8] | microsomal CLint [1] | solubility [2] |
| --- | --- | --- | --- | --- | --- | --- | --- | --- | --- | --- | --- | --- | --- | --- | --- | --- |
| C[C@@H]1COC[C@H](C)N1c1cc2c(C(=O)NCC(=O)N3CSC[C@H]3C#N)ccnc2cc1Br [Example 100, 7-Bromo-N-(2-((R)-4-cyanothiazolidin-3-yl)-2-oxoethyl)-6-((3S,5R)-3,5-dimethylmorpholino)quinoline-4-carboxamide] |  | 36 µM (≈ 18.7 µg/mL) | 170 nM | 0.0022 s⁻¹ | 3000000 M⁻¹ s⁻¹ | 0.73 nM | 0.5 nM | 280 μL/min/1E6 | 0.27 nM |  |  |  |  |  |  |  |
| N#C[C@@H]1CSCN1C(=O)CNC(=O)c1ccnc2ccc(N3C[C@H](F)[C@@H](F)C3)cc12 [Example 213, N-(2-((R)-4-Cyanothiazolidin-3-yl)-2-oxoethyl)-6-((3S,4S)-3,4-difluoro-pyrrolidin-1-yl)quinoline-4-carboxamide] | 31 µL/min/mg | 100 µM (≈ 43.1 µg/mL) | 470 nM | 0.00017 s⁻¹ | 4400000 M⁻¹ s⁻¹ | 0.039 nM | 0.18 nM | 19 μL/min/1E6 | 0.039 nM |  |  |  |  |  |  |  |
| CC1(C)CCN1c1ccc2nccc(C(=O)NCC(=O)N3CSC[C@H]3C#N)c2c1 [Example 20, (R)—N-(2-(4-Cyanothiazolidin-3-yl)-2-oxoethyl)-6-(2,2-dimethylazetidin-1-yl)quinoline-4-carboxamide] | 290 µL/min/mg | 900 µM (≈ 369 µg/mL) | 430 nM | 0.00012 s⁻¹ | 4200000 M⁻¹ s⁻¹ | 0.03 nM | 0.74 nM | 120 μL/min/1E6 | 0.43 nM |  |  |  |  |  |  |  |
| N#C[C@@H]1CSCN1C(=O)CNC(=O)c1ccnc2ccc(N3C[C@@H](F)[C@H](F)C3)cc12 [Example 214, N-(2-((R)-4-Cyanothiazolidin-3-yl)-2-oxoethyl)-6-((3R,4R)-3,4-difluoro-pyrrolidin-1-yl)quinoline-4-carboxamide] |  |  | 280 nM | 0.000092 s⁻¹ | 2900000 M⁻¹ s⁻¹ | 0.043 nM | 0.2 nM | 15 μL/min/1E6 | 0.079 nM |  |  |  |  |  |  |  |
| N#C[C@@H]1CSCN1C(=O)CNC(=O)c1ccnc2ccc(N3C[C@H](O)C(F)(F)C3)cc12 (mixture of isomers) [Example 224, N-(2-((R)-4-Cyanothiazolidin-3-yl)-2-oxoethyl)-6-((RS)-3,3-difluoro-4-hydroxypyrrolidin-1-yl)quinoline-4-carboxamide] | < 3 µL/min/mg | 50 µM | 670 nM | 0.000068 s⁻¹ | 3000000 M⁻¹ s⁻¹ | 0.023 nM |  | <1 μL/min/1E6 | 0.073 nM |  |  |  |  | 1.2 ×10⁻⁶ cm/s |  |  |
| N#C[C@@H]1CSCN1C(=O)CNC(=O)c1ccnc2ccc(N3CC4CCC(C3)O4)cc12 [Example 79, 6-(8-Oxa-3-azabicyclo[3.2.1]octan-3-yl)-N-(2-((R)-4-cyanothiazolidin-3-yl)-2-oxoethyl)quinoline-4-carboxamide] | 21 µL/min/mg | 610 µM (≈ 267 µg/mL) | 630 nM | 0.00012 s⁻¹ | 16000000 M⁻¹ s⁻¹ | 0.018 nM |  | 6.2 μL/min/1E6 | 0.043 nM |  | 1.1 ×10⁻⁶ cm/s | 33 ×10⁻⁶ cm/s | 29 |  |  |  |
| C[C@]1(F)CCN(c2ccc3nccc(C(=O)NCC(=O)N4CSC[C@H]4C#N)c3c2)C1 (mixture of isomers) [Example 198, N-(2-((R)-4-Cyanothiazolidin-3-yl)-2-oxoethyl)-6-((RS)-3-fluoro-3-methylpyrrolidin-1-yl)quinoline-4-carboxamide] | 20 µL/min/mg | 38 µM | 410 nM | 0.00011 s⁻¹ | 2900000 M⁻¹ s⁻¹ | 0.038 nM |  | 22 μL/min/1E6 | 0.056 nM |  | 3.4 ×10⁻⁶ cm/s | 36 ×10⁻⁶ cm/s | 11 |  |  |  |
| N#C[C@@H]1CSCN1C(=O)CNC(=O)c1ccnc2ccc(N3CCOC(F)(F)C3)cc12 [Example 4, (R)—N-(2-(4-Cyanothiazolidin-3-yl)-2-oxoethyl)-6-(2,2-difluoromorpholino)-quinoline-4-carboxamide] | 50 µL/min/mg | 55 µM (≈ 24.6 µg/mL) | 1100 nM | 0.000094 s⁻¹ | 1200000 M⁻¹ s⁻¹ | 0.079 nM |  | 14 μL/min/1E6 | 0.058 nM |  | 1.6 ×10⁻⁶ cm/s | 28 ×10⁻⁶ cm/s | 18 |  |  |  |
| N#C[C@@H]1CSCN1C(=O)CNC(=O)c1ccnc2ccc(N3CCC4(CC3)COC4)cc12 [Example 229, (R)—N-(2-(4-cyanothiazolidin-3-yl)-2-oxoethyl)-6-(2-oxa-7-azaspiro[3.5]nonan-7-yl)quinoline-4-carboxamide] |  |  | 320 nM | 0.000026 s⁻¹ | 2400000 M⁻¹ s⁻¹ | 0.01 nM |  | 15 μL/min/1E6 | 0.091 nM |  | 22 ×10⁻⁶ cm/s | 32 ×10⁻⁶ cm/s |  | 0.7 ×10⁻⁶ cm/s | < 3 µL/min/mg | > 1000 µM |
| CC1(O)CCN(c2ccc3nccc(C(=O)NCC(=O)N4CSC[C@H]4C#N)c3c2)CC1 [Example 190, (R)—N-(2-(4-Cyanothiazolidin-3-yl)-2-oxoethyl)-6-(4-hydroxy-4-methyl-piperidin-1-yl)quinoline-4-carboxamide] | < 3 µL/min/mg | > 1000 µM | 690 nM | 0.000036 s⁻¹ | 1800000 M⁻¹ s⁻¹ | 0.02 nM |  | <1 μL/min/1E6 | 0.069 nM |  | 0.32 ×10⁻⁶ cm/s | 7.6 ×10⁻⁶ cm/s | 24 |  |  |  |

Further lines, with some results ahead:

| microsomal CLint [1, 9] | solubility [2, 10] | IC50 [3] | hFAP Binding assay k(off) [4] | hFAP Binding assay k(on) [4] | Kd [4] | IC50 ([5]; hFAP […]) | rHep CLint [6] | IC50 [7] | IC50 ([5]; hFAP 0.24 nM) | Papp A→B [8] | Papp B→A [8] | efflux ratio [8] | Structure (SMILES) | Papp [8] | microsomal CLint [1] | solubility [2] |
| --- | --- | --- | --- | --- | --- | --- | --- | --- | --- | --- | --- | --- | --- | --- | --- | --- |
| 180 µL/min/mg | 690 µM (≈ 303 µg/mL) | 400 nM | 0.000059 s⁻¹ | 4100000 M⁻¹ s⁻¹ | 0.03 nM | 0.33 nM | 30 μL/min/1E6 | 0.19 nM |  |  |  |  | C[C@H]1COCCCN1c1ccc2nccc(C(=O)NCC(=O)N3CSC[C@H]3C#N)c2c1 [Example 63, N-(2-((R)-4-Cyanothiazolidin-3-yl)-2-oxoethyl)-6-((S)-3-methyl-1,4-oxazepan-4-yl)quinoline-4-carboxamide] |  |  |  |
|  |  | 280 nM | 0.000046 s⁻¹ | 1300000 M⁻¹ s⁻¹ | 0.043 nM |  |  | 0.065 nM | 0.24 nM |  |  |  | N#C[C@@H]1CSCN1C(=O)CNC(=O)c1ccnc2ccc(N3CCC[C@H](F)C3)cc12 (mixture of isomers) [Example 40, N-(2-((R)-4-Cyanothiazolidin-3-yl)-2-oxoethyl)-6-((RS)-3-fluoropiperidin-1-yl)quinoline-4-carboxamide] |  |  |  |
| 43 µL/min/mg | 890 µM (≈ 402 µg/mL) | 2100 nM | 0.000046 s⁻¹ | 490000 M⁻¹ s⁻¹ | 0.11 nM |  | 11 μL/min/1E6 | 0.12 nM |  | 0.3 ×10⁻⁶ cm/s | 13 ×10⁻⁶ cm/s | 45 | CC1(C)CCCN(c2ccc3nccc(C(=O)NCC(=O)N4CSC[C@H]4C#N)c3c2)C1=O [Example 15, (R)—N-(2-(4-Cyanothiazolidin-3-yl)-2-oxoethyl)-6-(3,3-dimethyl-2-oxopiperidin-1-yl)quinoline-4-carboxamide] |  |  |  |
| < 3 µL/min/mg | 830 µM (≈ 352 µg/mL) | 1200 nM | 0.000064 s⁻¹ | 1300000 M⁻¹ s⁻¹ | 0.05 nM |  | <1 μL/min/1E6 | 0.08 nM |  | 0.15 ×10⁻⁶ cm/s | 2.4 ×10⁻⁶ cm/s | 16 | N#C[C@@H]1CSCN1C(=O)CNC(=O)c1ccnc2ccc(N3CCCCC3=O)cc12 [Example 14, (R)—N-(2-(4-Cyanothiazolidin-3-yl)-2-oxoethyl)-6-(2-oxopiperidin-1-yl)-quinoline-4-carboxamide] |  |  |  |
